The record followed here is patent US20260015339A1, “CALIX[4]ARENES WITH HIGH ANTICANCER ACTIVITY” (UNIVERSITE GRENOBLE ALPES, priority 2023, published 2026).

Molecules are shown by their SMILES.

The test system of assay [1] is Hepatocellular carcinoma (HepG2/C3A) cells. Kind of assay: MTT cytotoxicity assay (DL50). Format: cell-based. As to conditions: 24 hours of incubation. The protocol: Cytotoxicity was evaluated using the MTT assay. 1.10^4 cells per well were seeded in a flat-bottom 96-well plate and were incubated for 48 hours at 37° C. with 5% CO2 before addition of the different calix[4]arenes at concentrations up to 200 μM. In all experiments, each condition was performed in triplicate in the plate. Besides, each experiment was done three times independently. After 24 hours of incubation in presence of the compounds, medium was discarded, cells were rinsed with PBS and 100 μL of medium containing 0.5 mg/mL of MTT was added to each well. After 30 minutes of incubation at 37° C., MTT solution was discarded and formazan crystals formed were dissolved in 150 μL of 4 mM HCl, 0.1% NP40 in isopropanol. The absorbance in the wells were read in a microplate reader (Tecan microplate reader-550) at 570 nm.
A general note: Tetrazolium assays rely on reduction of a dye to a coloured formazan, in cell work by metabolically active cells.

Assay [2] relates to H322 lung carcinoma cells. Kind of assay: MTS cytotoxicity assay on H322. Format: cell-based. As to conditions: NCI-H322; H322, 72 hours of treatment.
Method: H322 lung carcinoma cells were seeded in 96-well plates together with the calix[4]arene of the formula (2). Cells were grown in RPMI-1640 supplemented with GlutaMAX™ (Gibco™) and fetal calf serum (FCS, 10%) and treated with a broad range of concentrations of the calix[4]arene of the formula (2). After 72 hours of treatment, the cytotoxicity was measured by means of the IC50 value, using the kit “CellTiter 96R AQuous One Solution Cell Proliferation Assay (MTS)” from Promega™. Following 30 minutes of incubation with the MTS reagent, the endpoint measurements were done in triplicate at 485 nm, using a fluorescence plate reader.
H322 lung carcinoma cells were seeded in 96-well plates together with the compound of the 2nd comparative example of the formula (XI). Cells were grown in RPMI-1640 supplemented with GlutaMAX™ (Gibco™) and fetal calf serum (FCS, 10%) and treated with a broad range of concentrations of the 2nd comparative example of the formula (XI). After 72 hours of treatment, the cytotoxicity was measured by means of the IC50 value, using the kit “CellTiter 96R AQuous One Solution Cell Proliferation Assay (MTS)” from Promega™. Following 30 minutes of incubation with the MTS reagent, the endpoint measurements were done in triplicate at 485 nm, using a fluorescence plate reader.
H322 lung carcinoma cells were seeded in 96-well plates together with the 1st comparative example of the formula (X). Cells were grown in RPMI-1640 supplemented with GlutaMAX™ (Gibco™) and fetal calf serum (FCS, 10%) and treated with a broad range of concentrations of the compound of the formula (X). After 72 hours of treatment, the cytotoxicity was measured by means of the IC50 value, using the kit “CellTiter 96R AQuous One Solution Cell Proliferation Assay (MTS)” from Promega™. Following 30 minutes of incubation with the MTS reagent, the endpoint measurements were done in triplicate at 485 nm, using a fluorescence plate reader.
H322 lung carcinoma cells were seeded in 96-well plates together with the tested calix[4]arenes. Cells were grown in RPMI-1640 supplemented with GlutaMAX™ (Gibco™) and fetal calf serum (FCS, 10%) and treated with a broad range of concentrations of the tested calix[4]arenes. After 72 hours of treatment, the cytotoxicity was measured by means of the IC50 value, using the kit “CellTiter 96R AQuous One Solution Cell Proliferation Assay (MTS)” from Promega™. Following 30 minutes of incubation with the MTS reagent, the endpoint measurements were done in triplicate at 485 nm, using a fluorescence plate reader.
Assay [3] can be described thus: Cu^+ binding by 1H NMR titration. As to conditions: 1H NMR titration with Cu(MeCN)4BF4, CD3CN/CDCl3 4/1, 298 K. The protocol: Binding abilities and complexation constants of the examples of calix[4]arenes of the present invention and the comparative examples with Cu^+ were evaluated by ^1H NMR titrations at 298 K using copper(I)tetrakis(acetronitrile)tetrafluoroborate.
For example, for each separate calix[4]arene a stock solution of the tested calix[4]arene was prepared in a CD3CN/CDCl3, 4/1 mixture. Using this stock solution, a Cu(MeCN)4BF4 solution was prepared and added by steps of 0.25 equivalent of copper(I) up until 1 equivalent and then by steps of 0.5 equivalent until a total of at least 2 equivalents. ^1H NMR spectra were recorded at a 400 MHz spectrometer at 298 K for the stock solutions of the calix[4]arenes and after each addition of Cu(MeCN)4BF4.
Calix[4]arenes for which a gradual change of the chemical shifts of the ^1H NMR signals (>0.1 ppm for at least one of the signals) was observed upon addition of up to 4-5 equivalents of Cu(MeCN)4BF4 were considered to show weak binding.

A short description of assay [4]: Cu^+ transport into liposomes with encapsulated BCS. As to conditions: POPC/cholesterol 7:3 LUVs, calix[4]arene to lipid 1:1000, 50 μM copper gradient, F/F0 after 600 s. As to the method: The ability of the examples of calix[4]arenes of the invention and the comparative examples to be delivered into a lipidic bilayer membrane of a liposome from a solution and their capacity to then act as a transporter of Cu^+ was evaluated using bathocuproine disulphonate (hereafter abbreviated “BCS”) encapsulated in large unilamellar vesicles (LUVs, also referred to as liposomes) composed of 1-palmitoyl-2-oleoyl-sn-glycero-3-phosphocholine and cholesterol in a 7:3 ratio.
BCS is a fluorescent water soluble phenantroline derivative that can be used as fluorescent dye for the sensing of Cu^+ through the formation of a non-fluorescent 2:1 complex.
Stock solution of lipids were prepared using deacidified CHCl3 and stored in a freezer. CHCl3 was deacidified by passing through activated basic alumina. The lipids used to prepare the liposomes were 2-oleoyl-1-palmitoyl-sn-glycero-3-phosphocholine (POPC), (purity ≥99%) and cholesterol (purity of 95%). 50 mM sodium phosphate buffer were prepared with Millipore water at pH 7 (±0.1) by mixing the solution of the mono- and the di-protonated phosphate salts. The solution of the dye (BCS) was prepared at 0.5 mM concentration in phosphate buffer.
The lipids solutions were mixed in different ratios in a 5 mL round bottom flask. The POPC/cholesterol molar ratio was 7:3 in all experiments. The total amount of lipids per batch varied depending on the amount of liposomes solution required for the experiment. After mixing the lipid solutions in a round bottom flask, the chloroform was evaporated under a gentle air flow and the resulting lipid film was dried at high vacuum for at least an hour. 500 μL of the BCS solution in phosphate buffer and a magnetic stir bar were added to the flask. The flask was then sonicated for 30 seconds and placed under magnetic agitation for at least an hour. The solution was frozen with liquid nitrogen and heated back to room temperature with warm water ten times to form large unilamellar vesicles (LUVs). The liposome solution was extruded 29 times, using an extrusion kit equipped with a membrane with 200 nm pores. Subsequently, the solution was eluted with the buffer solution used for the experiment through a size exclusion column (Sephadex G-25) to remove the external BCS and then diluted with phosphate buffer to obtain a concentration of 0.4 mM in lipids.
Solutions of the calix[4]arenes were prepared at a concentration of 0.24 mM in DMSO and 5 μL of the solution was added 2 minutes before each transport measurement.
Alternatively, calix[4]arenes were pre-incorporated by combining the calix[4]arene (dissolved in chloroform) with the lipids prior to the evaporation of the chloroform to obtain a lipid film. The concentrations and volumes were chosen to obtain a calix[4]arene to lipid of 1:1000.
Fluorescence measurements were performed with a Horiba FluoroMax 4 spectrometer using a 4-faced quartz cuvette (10 mm×10 mm). For the Cu^+ transport assay, the excitation was set at 278 nm and emission was recorded at 393 nm. These values correspond to the excitation and emission maxima of BCS encapsulated inside LUVs.
The Cu^+ solutions added to the liposomes were obtained by dissolving Cu(MeCN)4BF4 in MeCN at 15.25 mM concentration. The copper solution was then diluted by a factor 5 in a phosphate buffer during the first 30 seconds of the experiment to reach a copper concentration of 3.05 mM. 50 μL of the diluted copper solution was added to 3 mL of liposomes, resulting in a copper gradient of 50 μM. The fluorescence level was monitored for 600 seconds after the addition of the copper solution.
For each run the initial plateau and the initial vertical drop (due to the binding of the exterior dye with Cu^+ and the dilution, 1-4 seconds after the addition) were removed. Then the signal was normalised by dividing the fluorescence values (F) by the value at t=0 second (F0). […]

Assay [5] deals with Non-malignant MRC5-SVII cells. The assay can be described thus: MTS cytotoxicity assay on MRC5-SVII. It is filed as cell-based. As to conditions: 72 hours of treatment. As to the method:
Cells were grown in Minimal Essential Medium—Non Essential Amino Acids (MEM NEAA) culture medium from Gibco™, supplemented with sodium pyruvate ([…]), and fetal calf serum (FCS, 10%) and treated with a broad range of concentrations of the 2nd comparative example of the formula (XI).

The test system of assay [6] is A549 human lung cancer cells. The assay can be described thus: MTS cytotoxicity assay on A549. As to conditions: A549, 72 hours of treatment. It is filed as cell-based.
Method: A549 human lung cancer cells were seeded in 96-well plates together with the calix[4]arene of the formula (2). Cells were grown in RPMI-1640 supplemented with GlutaMAX™ (Gibco™) and fetal calf serum (FCS, 10%) and treated with a broad range of concentrations of the calix[4]arene of the formula (2). After 72 hours of treatment, the cytotoxicity was measured by means of the IC50 value, using the kit “CellTiter 96R AQuous One Solution Cell Proliferation Assay (MTS)” from Promega™. Following 30 minutes of incubation with the MTS reagent, the endpoint measurements were done in triplicate at 485 nm, using a fluorescence plate reader.
A549 human lung cancer cells were seeded in 96-well plates together with the compound of the 2nd comparative example of the formula (XI). Cells were grown in RPMI-1640 supplemented with GlutaMAX™ (Gibco™) and fetal calf serum (FCS, 10%) and treated with a broad range of concentrations of the 2nd comparative example of the formula (XI). After 72 hours of treatment, the cytotoxicity was measured by means of the IC50 value, using the kit “CellTiter 96R AQuous One Solution Cell Proliferation Assay (MTS)” from Promega™. Following 30 minutes of incubation with the MTS reagent, the endpoint measurements were done in triplicate at 485 nm, using a fluorescence plate reader. […]
Assay [7] has as its system PC9 human lung cancer cells. Kind of assay: MTS cytotoxicity assay on PC9. It is filed as cell-based. As to conditions: PC9, 72 hours of treatment.
Method: PC9 human lung cancer cells were seeded in 96-well plates together with the calix[4]arene of the formula (2). Cells were grown in RPMI-1640 supplemented with GlutaMAX™ (Gibco™) and fetal calf serum (FCS, 10%) and treated with a broad range of concentrations of the calix[4]arene of the formula (2). After 72 hours of treatment, the cytotoxicity was measured by means of the IC50 value, using the kit “CellTiter 96R AQuous One Solution Cell Proliferation Assay (MTS)” from Promega™. Following 30 minutes of incubation with the MTS reagent, the endpoint measurements were done in triplicate at 485 nm, using a fluorescence plate reader.
PC9 human lung cancer cells were seeded in 96-well plates together with the 2nd comparative example of the formula (XI). Cells were grown in RPMI-1640 supplemented with GlutaMAX™ (Gibco™) and fetal calf serum (FCS, 10%) and treated with a broad range of concentrations of the compound of the 2nd comparative example of the formula (XI). After 72 hours of treatment, the cytotoxicity was measured by means of the IC50 value, using the kit “CellTiter 96R AQuous One Solution Cell Proliferation Assay (MTS)” from Promega™. Following 30 minutes of incubation with the MTS reagent, the endpoint measurements were done in triplicate at 485 nm, using a fluorescence plate reader. […]

A word on the IC50: it is the concentration needed to halve the response being measured. Read a low IC50 as greater potency.

On to `CCCOc1c2cc([N+](=O)[O-])cc1Cc1cccc(c1OCc1nccn1C)Cc1cc([N+](=O)[O-])cc(c1OCCC)Cc1cccc(c1OCc1nccn1C)C2` [(7)], for which the figures for the half-maximal inhibitory concentration (IC50) in assay [1] and in assay [2] were 10.9 µM and 5 µM, respectively. Also, in assay [3], the “Cu^+ binding” value is “Strong binding (means an affinity constant (Ka) equal or greater than 10^5 M^−1)”. In addition, in assay [4], the “Cu^+ transport” value was “Yes (means that a significant decrease of the fluorescence of encapsulated BCS was observed upon addition of Cu^+ to the liposomes (F/F0<0.65 after 600 s))”.
With `CCCOc1c2cccc1Cc1cccc(c1OCCC)Cc1cccc(c1OCCC)Cc1cccc(c1OCCC)C2` [(XI)], the IC50 is over 20 µM in assay [5]; over 50 µM in assay [6]; 184 µM in assay [1]; over 50 µM in assay [2]; over 50 µM in assay [7]. Also, in assay [3], the “Cu^+ binding” value was “Not significant (means that no significant changes of chemical shifts (<0.1 ppm) were observed upon addition of 4-5 equivalents of Cu(MeCN)4BF4)”. Besides, the “Cu^+ transport” value in assay [4] was “No (means that no significant decrease of the fluorescence of encapsulated BCS was observed upon addition of Cu^+ to the liposomes (F/F0 >0.65 after 600 s) when the calix[4]arene was either delivered from a solution in DMSO to liposomes or pre-incorporated into the liposomes)”.
